Data published in publication PMC7525318, “Identification of Six Flavonoids as Novel Cellular Antioxidants and Their Structure-Activity Relationship” (Oxidative Medicine and Cellular Longevity, 2020).

What was measured:
[1] = DPPH radical scavenging activity; conditions: 0.1 mM DPPH in methanol, 37°C, 30 min
Description: This assay was conducted as previously described by Wen et al. with some modifications. DPPH was freshly prepared in methanol at a concentration of 0.1 mM. The solution (20 μL) containing the tested compounds with different concentrations was added into the DPPH solution (180 μL) in the 96-well plates. […] The IC50 value was calculated on the scavenging activity against DPPH radical.

HepG2 cells = test: Cellular antioxidant activity (CAA) assay; assay type: cell-based; conditions: DCFH-DA 25 μM, ABAP 600 μM
Description: The CAA assay was tested as described previously. 6 × 10^4 cells/well of HepG2 cells were seeded at a 96-well microplate with 100 μL of growth medium/well. […] Then, the cells were washed with PBS and treated with 100 μL of 600 μM ABAP (dissolved in HBSS), and the 96-well microplate was immediately placed into an Infinite SpectraMax i3x Multi-Mode Detection plate-reader at 37°C. […]

[2] = Oxygen radical antioxidant capacity (ORAC) assay; conditions: Trolox equivalents; AAPH, fluorescein
Description: The ORAC assay was evaluated as previously described by Cao et al. with some modifications. 50 μL of samples or Trolox with different concentrations and the fluorescein solution was added to a 96-well microplate, which was incubated at 37°C for 10 min. […] The ORAC values were calculated by the regression equation between the Trolox concentration and the net area under the curve (expressed as μmol Trolox eq/μmol sample).

| Compound | IC50 [1] | EC50 (HepG2 cells; Homo sapiens) | ORAC values [2] | EC50 (HepG2 cells) |
| --- | --- | --- | --- | --- |
| COc1cc(-c2oc3cc(O)cc(O)c3c(=O)c2O)ccc1O [compound 1, Isorhamnetin] | 126 ± 4.26 µM | 23.3 ± 1.38 µM | – | – |
| COc1ccc(-c2oc3cc(O)cc(O)c3c(=O)c2O)cc1 [compound 3, Kaempferide] | > 200 µM | > 30 µM | – | – |
| O=c1c(O)c(-c2ccc(O)cc2O)oc2cc(O)cc(O)c12 [compound 4, Morin] | > 200 µM | 15.2 ± 0.32 µM | 5.98 ± 0.01 μmol TE/μmol | – |
| O=c1c(O)c(-c2ccc(O)cc2)oc2cc(O)cc(O)c12 [compound 6, Kaempferol] | > 200 µM | 11 ± 0.25 µM | 4.17 ± 0.06 μmol TE/μmol | – |
| O=c1c(O)c(-c2ccc(O)c(O)c2)oc2cc(O)cc(O)c12 [compound 7, Quercetin, reference compound] | 21.5 ± 1.9 µM | 8.77 ± 0.09 µM | 5.52 ± 0.04 μmol TE/μmol | – |
| O=c1c(O[C@@H]2O[C@H](CO)[C@H](O)[C@H](O)[C@H]2O)c(-c2ccc(O)cc2)oc2cc(O)cc(O)c12 [compound 11, Trifolin] | 45.1 ± 2.12 µM | > 200 µM | 2.06 ± 0.01 μmol TE/μmol | – |
| O=c1c(O)c(-c2ccc(OC3O[C@H](CO)[C@@H](O)[C@H](O)[C@H]3O)cc2)oc2cc(O)cc(O)c12 (stereo partly shown) [compound 12, Kaempferol-4′-O-glucopyranoside] | > 200 µM | > 200 µM | – | – |
| C[C@@H]1O[C@@H](OC[C@H]2O[C@@H](Oc3c(-c4ccc(O)c(O)c4)oc4cc(O)cc(O)c4c3=O)[C@H](O)[C@@H](O)[C@@H]2O)[C@H](O)[C@H](O)[C@H]1O [compound 16, Rutin] | 70 ± 1.44 µM | > 200 µM | – | – |
| O=c1c(O)c(-c2ccc(O[C@@H]3O[C@H](CO)[C@@H](O)[C@H](O)[C@H]3O)c(O)c2)oc2cc(O)cc(O)c12 [compound 17, Spiraeoside] | > 200 µM | > 200 µM | – | – |
| O=c1c(O)c(-c2cc(O)c(O)c(O)c2)oc2cc(O)cc(O)c12 [compound 18, Myricetin] | 21.3 ± 1.33 µM | 26.7 ± 1.04 µM | 6.64 ± 0.03 μmol TE/μmol | – |
| COc1ccc(-c2cc(=O)c3c(OC)c(OC)c(OC)c(OC)c3o2)cc1 [compound 19, Tangeretin] | > 200 µM | > 200 µM | – | – |
| O=c1cc(-c2ccccc2)oc2cc(O)cc(O)c12 [compound 20, Chrysin] | > 200 µM | > 200 µM | – | – |
| O=c1cc(-c2ccccc2)oc2cc(O)c(O)c(O)c12 [compound 21, Baicalein] | > 200 µM | 42.5 ± 0.24 µM | – | – |
| O=c1cc(-c2ccc(O)cc2)oc2cc(O)cc(O)c12 [compound 22, Apigenin] | > 200 µM | > 200 µM | 4.27 ± 0.02 μmol TE/μmol | – |
| O=c1cc(-c2ccc(O)c(O)c2)oc2cc(O)cc(O)c12 [compound 23, Luteolin] | 73.2 ± 0.75 µM | 18.6 ± 0.61 µM | 4.27 ± 0.02 μmol TE/μmol | – |
| O=c1c(OC2OC(CO)C(O)C(O)C2O)c(-c2cc(O)c(O)c(O)c2)oc2cc(O)cc(O)c12 (stereo not shown) [compound 25, Myricetin-3-O-galactoside] | 82.4 ± 2.88 µM | > 200 µM | – | – |
| O=c1c(OC2OC(CO)C(O)C(O)C2O)c(-c2ccc(O)c(O)c2)oc2cc(O)cc(O)c12 (stereo not shown) [compound 26, Quercetin-3-O-galactoside] | 53.3 µM | 45.9 µM | 4.05 ± 0.15 μmol TE/μmol | – |
| C[C@@H]1O[C@@H](Oc2c(-c3ccc(O)c(O)c3)oc3cc(O)cc(O)c3c2=O)[C@H](O)[C@H](O)[C@H]1O [compound 28, Quercitrin] | 68.3 ± 1.37 µM | > 200 µM | – | – |
| O=c1c(O[C@@H]2O[C@H](CO)[C@@H](O)[C@H](O)[C@H]2O)c(-c2ccc(O)c(O)c2)oc2cc(O)cc(O)c12 [compound 29, Isoquercitrin] | > 200 µM | > 200 µM | – | – |
| O=c1cc(-c2ccc(O)cc2)oc2c([C@@H]3O[C@H](CO)[C@@H](O)[C@H](O)[C@H]3O)c(O)cc(O)c12 [compound 30, Vitexin] | > 200 µM | > 200 µM | 6.80 ± 0.42 μmol TE/μmol | – |
| O=c1cc(-c2ccc(O)c(O)c2)oc2c([C@@H]3O[C@H](CO)[C@@H](O)[C@H](O)[C@H]3O)c(O)cc(O)c12 [compound 31, Orientin] | > 200 µM | > 200 µM | – | – |
| O=c1cc(-c2ccc(O)cc2)oc2cc(O)c([C@@H]3O[C@H](CO)[C@@H](O)[C@H](O)[C@H]3O)c(O)c12 [compound 33, Isovitexin] | > 200 µM | > 200 µM | – | – |
| O=c1c(O)c(-c2ccccc2)oc2cc(O)cc(O)c12 [compound 34, Galangin] | > 200 µM | 31.2 ± 0.86 µM | – | – |

| Compound | IC50 [1] | EC50 (HepG2 cells; Homo sapiens) | ORAC values [2] | EC50 (HepG2 cells) |
| --- | --- | --- | --- | --- |
| O=c1c(O)c(-c2ccc(O)c(O)c2)oc2cc(O)ccc12 [compound 35, Fisetin] | 25.2 ± 0.62 µM | > 200 µM | 5.36 ± 0.21 μmol TE/μmol | – |
| COc1ccc(-c2cc(=O)c3c(O)cc(O)cc3o2)cc1O [compound 36, Diosmetin] | > 200 µM | > 200 µM | 5.02 ± 0.14 μmol TE/μmol | – |
| COc1cc(O)c2c(=O)cc(-c3ccc(O)cc3)oc2c1 [compound 37, Genkwanin] | > 200 µM | > 200 µM | – | – |
| O=C1c2c(O)cc(O)cc2O[C@H](c2cc(O)c(O)c(O)c2)[C@H]1O [compound 38, Dihydromyricetin] | > 200 µM | > 200 µM | 5.25 ± 0.02 μmol TE/μmol | – |
| O=C1c2c(O)cc(O)cc2OC(c2ccc(O)c(O)c2)C1O (stereo not shown) [compound 39, Taxifolin] | 59.6 ± 3.12 µM | > 200 µM | 5.26 ± 0.04 μmol TE/μmol | – |
| O=C1c2c(O)cc(O)cc2O[C@H](c2ccc(O)cc2O)[C@H]1O [compound 40, Dihydromorin] | > 200 µM | > 200 µM | 5.29 ± 0.05 μmol TE/μmol | – |
| COc1ccc([C@@H]2CC(=O)c3c(O)cc(O[C@@H]4O[C@H](CO)[C@@H](O)[C@H](O)[C@H]4O[C@@H]4O[C@@H](C)[C@H](O)[C@@H](O)[C@H]4O)cc3O2)cc1O [compound 41, Neohesperidin] | > 200 µM | – | – | > 200 µM |
| C[C@@H]1O[C@@H](OC[C@H]2O[C@@H](Oc3cc(O)c4c(c3)O[C@H](c3ccc(O)cc3)CC4=O)[C@H](O)[C@@H](O)[C@@H]2O)[C@H](O)[C@H](O)[C@H]1O [compound 42, Narirutin] | > 200 µM | > 200 µM | – | – |
| COc1ccc([C@@H]2CC(=O)c3c(O)cc(O)cc3O2)cc1O [compound 43, Hesperetin] | > 200 µM | > 200 µM | – | – |
| COc1ccc([C@@H]2CC(=O)c3c(O)cc(O[C@@H]4O[C@H](CO[C@@H]5O[C@@H](C)[C@H](O)[C@@H](O)[C@H]5O)[C@@H](O)[C@H](O)[C@H]4O)cc3O2)cc1O [compound 44, Hesperidin] | > 200 µM | – | 6.52 ± 0.15 μmol TE/μmol | > 200 µM |
| O=C1C[C@@H](c2ccc(O)cc2)Oc2cc(O)cc(O)c21 [compound 45, Naringenin] | > 200 µM | > 200 µM | 4.62 ± 0.13 μmol TE/μmol | – |
| O=C1C[C@@H](c2ccc(O)cc2)Oc2cc(O)ccc21 [compound 46, Liquiritigenin] | > 200 µM | > 200 µM | – | – |
| COc1ccc(CCC(=O)c2c(O)cc(O[C@@H]3O[C@H](CO)[C@@H](O)[C@H](O)[C@H]3O[C@@H]3O[C@@H](C)[C@H](O)[C@@H](O)[C@H]3O)cc2O)cc1O [compound 47, Neohesperidin dihydrochalcone] | > 200 µM | > 200 µM | 4.31 ± 0.01 μmol TE/μmol | – |
| O=C(CCc1ccc(O)cc1)c1c(O)cc(O)cc1O [compound 48, Phloretin] | > 200 µM | 30.96 ± 0.2 µM | – | – |
| O=C(CCc1ccc(O)cc1)c1c(O)cc(O)cc1O[C@@H]1O[C@H](CO)[C@@H](O)[C@H](O)[C@H]1O [compound 49, Phlorizin] | > 200 µM | > 200 µM | 6.43 ± 0.14 μmol TE/μmol | – |
| O=C(/C=C/c1ccc(O)cc1)c1ccc(O)cc1O [compound 50, Isoliquiritigenin] | – | > 200 µM | – | – |
| Oc1cc(O)c2cc(O)c(-c3ccc(O)c(O)c3)[o+]c2c1 [compound 51, Cyanidin chloride] | 70.8 ± 2.31 µM | 19.16 ± 0.16 µM | 5.71 ± 0.03 μmol TE/μmol | – |
| Oc1cc(O)c2cc(O)c(-c3cc(O)c(O)c(O)c3)[o+]c2c1 [compound 52, Delphinidin chloride] | 36.8 ± 4.26 µM | 24.91 ± 0.12 µM | 5.02 ± 0.02 μmol TE/μmol | – |
| OCC1OC(Oc2cc3c(OC4OC(CO)C(O)C(O)C4O)cc(O)cc3[o+]c2-c2ccc(O)c(O)c2)C(O)C(O)C1O (stereo not shown) [compound 53, Cyanin chloride] | > 200 µM | > 200 µM | – | – |
| OC[C@H]1O[C@@H](Oc2cc3c(O)cc(O)cc3[o+]c2-c2ccc(O)c(O)c2)[C@H](O)[C@@H](O)[C@@H]1O.[Cl-] [compound 54, Cyanidin-3-O-glucoside chloride] | > 200 µM | – | 4.63 ± 0.14 μmol TE/μmol | 43.8 µM |
| OCC1OC(Oc2cc3c(OC4OC(CO)C(O)C(O)C4O)cc(O)cc3[o+]c2-c2ccc(O)cc2)C(O)C(O)C1O (stereo not shown) [compound 55, Pelargonin chloride] | > 200 µM | > 200 µM | – | – |
| Myricitrin [compound 9] | 50.9 ± 2.14 µM | – | – | > 200 µM |
| Quercetin-3-O-rhamnoside [compound 27] | 47.7 µM | – | – | 22.8 µM |
